{"source": "patent US3933784A", "about": "“Des-(ser^13)-srif and intermediates” (American Home Products Corporation, priority 1975, dated 1976)", "system": "growth hormone", "assay": "Growth hormone activity in nembutal-treated rats, growth hormone level by radioimmunoassay", "type": "in vivo", "conditions": "rats 200-250 g, nembutal 50 mg/kg i.p., 5 minutes later compound 800 μg per rat s.c. in saline; blood taken 15 minutes after injection; control rats 159 ± 16 ng/ml", "procedure": "After hydrolysis of the peptide in methanesulfonic acid for 18 hours at 120°C in an evacuated sealed tube, the following values for the amino acid residues are obtained: Ala 1.00, Gly 1.00, Cys 1.59, Lys 1.88, Asp 0.99, Phe 3.05, Trp (present, but not quantitated), Thr 1.76. The growth hormone activity of the compound of Example 3 was determined by injecting rats weighing about 200-250 g first with nembutal intraperitoneally at a dose of 50 mg/kg then after 5 minutes injecting the rats subcutaneously with a solution of the compound of Example 3 in saline at a dose of 800 μg per rat. Blood samples are taken 15 minutes after injection with the compound of Example 3 and the growth hormone level determined by radioimmunoassay.", "note": "Positions of bridges follow the written chain, without caps; N, C: chain ends. No end group written: not given here.", "data": [{"substance": "L-alanylglycyl-L-cysteinyl-L-lysyl-L-asparaginyl-L-phenylalanyl-L-phenylalanyl-L-tryptophyl-L-lysyl-L-threonyl-L-phenylalanyl-L-threonyl-L-cysteine-(3-13 cyclic) disulfide (AGCKNFFWKTFTC; disulfide 3-13; UniProt P61278 103-116, looked up, variant S13*) [Example 3, tridecapeptide analog of somatostatin in which the amino acid in the thirteen position has been omitted]", "values": [{"measurement": "growth hormone level", "result": "49 ± 7", "unit": "ng/mL"}]}]}
